Data reported in patent publication US11883407B2, “Medicament for the treatment of chronic cough” (Shionogi & Co., Ltd., priority 2018, dated 2024).

Tests used:
[1] = Phase I repeat dose study (safety, tolerability); format: in vivo, human
[2] = Phase II clinical trial: treatment-related and taste-related adverse events; format: in vivo, human
Description: The trial was conducted as a placebo-controlled, multicenter, randomized, double-blind, cross-over comparative study. The study consists of a screening phase (1 to 4 weeks), a first treatment phase (15 days), a drug holiday (2 to 3 weeks), a second treatment phase (15 days) and a follow-up phase (1 week).
Subjects (20 females, 11 males, mean age of 50.0 years) were randomly assigned to either the group receiving the compound according to Formula (I) first or the group receiving the placebo first. The subjects in the group receiving the compound according to Formula (I) first received orally tablets containing 150 mg of the compound according to Formula (I) (50 mg, 3 tablets), and the subjects in the group receiving the placebo first received orally placebo tablets (3 tablets), from the day following the first treatment phase once daily in the morning for 2 weeks.
Next, the incidence of taste-related adverse events and side effects observed in the Phase II clinical trial is shown in Table 6.
Here, the incidence of taste-related adverse events in Test Example 6 was examined. In this study, the compound represented by Formula (I) and the corresponding placebo were used as the investigational drugs. As the study design, a cross-over design consisting of two treatment phases was used. Each subject was assigned to either the treatment group taking 150 mg per day of the compound represented by Formula (I) during the first treatment phase and the placebo during the second treatment phase, or the treatment group taking the placebo during the first treatment phase and 150 mg per day of the compound represented by Formula (I) during the second treatment phase. The safety analysis population in this study was 31 subjects, all of whom were taking the compound represented by Formula (I) and the placebo. Among them, dysgeusia occurred in 1 subject (1/31, 3.2%) and hypogeusia occurred in another subject (1/31, 3.2%) when taking the compound represented by Formula (I). […] Therefore, taste-related adverse events occurred in 2 subjects (2/31, 6.5%). No taste-related adverse events were observed when taking the placebo.
Based on the above results, for the proportion of subjects who experienced any of the taste-related adverse events, the study design of each study was taken into account, and as the difference between each investigational drug and placebo, the mean of differences of incidence in the same subject between the treatments and the two-sided 95% confidence interval thereof were calculated for Test Example 6, and the difference of incidence between the Gefapixant 50 mg treatment group and the placebo treatment group and the two-sided 95% confidence interval thereof were calculated for the study MK-7264-012.

With `C[C@@H](Cn1c(=O)[nH]/c(=N\c2ccc(Oc3ccccn3)cc2)n(Cc2ccc(Cl)cc2)c1=O)C(=O)O` [compound represented by Formula (I), (2S)-3-(3-[(4-Chlorophenyl)methyl]-2,6-dioxo-4-{[4-(pyridin-2-yloxy)phenyl]amino}-3,6-dihydro-1,3,5-triazin-1(2H)-yl)-2-methyl-propanoic acid] the “dysgeusia or any taste-related disorder” value ([1]; 150 and 300 mg once daily for 2 weeks) was “no dysgeusia or any taste-related disorder was observed”, the “deaths, serious adverse events, adverse events leading to discontinuation of administration” value ([1]; any administration group, healthy adult males) was “no deaths, serious adverse events or adverse events leading to discontinuation of administration” and the “Any Treatment-related AEs, number of events” value ([2]; 150 mg once daily, N = 31) was “(4)”. For the same compound, the “Drug-induced liver injury, number of events” value ([2]; 150 mg once daily, N = 31) was “(1)”, the “Drug-induced liver injury, patients” value ([2]; 150 mg once daily, N = 31) was 1 (3.2) n (%) and the “Dysgeusia, number of events” value ([2]; 150 mg once daily, N = 31) was “(1)”. For the same compound, the “Dysgeusia, patients” value ([2]; 150 mg once daily, N = 31) was 1 (3.2) n (%), the “Gastrointestinal disorders, number of events” value ([2]; 150 mg once daily, N = 31) was “(1)” and the “Gastrointestinal disorders, patients” value ([2]; 150 mg once daily, N = 31) was 1 (3.2) n (%). For the same compound, the “Hepatobiliary disorders, number of events” value ([2]; 150 mg once daily, N = 31) was “(1)”, the “Hepatobiliary disorders, patients” value ([2]; 150 mg once daily, N = 31) was 1 (3.2) n (%) and the “Hypoaesthesia oral, number of events” value ([2]; 150 mg once daily, N = 31) was “(1)”. For the same compound, the “Hypoaesthesia oral, patients” value ([2]; 150 mg once daily, N = 31) was 1 (3.2) n (%), the “Hypogeusia, number of events” value ([2]; 150 mg once daily, N = 31) was “(1)” and the “Nervous system disorders, number of events” value ([2]; 150 mg once daily, N = 31) was “(2)”. For the same compound, the “Nervous system disorders, patients” value ([2]; 150 mg once daily, N = 31) was 2 (6.5) n (%), the “Patients with any Treatment-related AEs” value ([2]; 150 mg once daily, N = 31) was 4 (12.9) n (%) and the “hypogeusia, patients” value ([2]; 150 mg once daily, N = 31) was 1 (3.2) n (%). For the same compound, the “severity of taste-related adverse events” value ([2]; 150 mg per day) was “both were mild”, the ageusia ([2]; 150 mg per day, 31 subjects) was “No ageusia was observed” and the “dysgeusia (taste change), patients” value ([2]; 150 mg per day, 31 subjects) was 3.2%. For the same compound, the “hypogeusia, patients” value ([2]; 150 mg per day, 31 subjects) was 3.2%, the “number of subjects with taste-related adverse events” value ([2]; 150 mg per day, 31 subjects) was 2 subjects and the “taste-related adverse events, patients” value ([2]; 150 mg per day, 31 subjects) was 6.5%. The “Difference of incidence of any of the taste-related adverse events (drug − placebo)” value ([2]; 150 mg, mean difference between treatments in the same subject) was 6.5%.
